Values after ≈ are worked out from the molar mass of the structure shown. Where a name gives a salt, the structure may show the parent alone.

The term CC50 denotes the concentration at which the toxic effect on the cells reaches its halfway point.

In one test the test system is Candida albicans. The experiment in a line: microbe, parasite or virus in culture. Conditions: ATCC 90028, ASSAY_TEST Inhibition of Fungal Growth, detection method Absorption (OD530), plate type 384well, NBS, CORNING #3640.
The test system of test [1] is Pseudomonas aeruginosa. The test is described as follows: microbe, parasite or virus in culture. Conditions: ATCC 27853, 18 h, ASSAY_TEST Inhibition of Bacterial Growth, detection method Absorption (OD600), MEDIA CAMHB, plate type 384well, NBS, CORNING #3640.
Description: Antibacterial activity against Pseudomonas aeruginosa ATCC 27853 (CO-ADD:GN_042); MIC in CAMBH media using NBS plates, by OD(600)
For another test, the system named is Staphylococcus aureus. The experiment in a line: microbe, parasite or virus in culture. Conditions: ATCC 43300, 18 h, ASSAY_TEST Inhibition of Bacterial Growth, detection method Absorption (OD600), MEDIA CAMHB, plate type 384well, NBS, CORNING #3640.
The subject of a further test is Klebsiella pneumoniae. The experiment in a line: microbe, parasite or virus in culture. Conditions: ATCC 700603, 18 h, ASSAY_TEST Inhibition of Bacterial Growth, detection method Absorption (OD600), MEDIA CAMHB, plate type 384well, NBS, CORNING #3640.
The subject of a further test is Acinetobacter baumannii. The experiment in a line: microbe, parasite or virus in culture. Conditions: ATCC 19606, 18 h, ASSAY_TEST Inhibition of Bacterial Growth, detection method Absorption (OD600), MEDIA CAMHB, plate type 384well, NBS, CORNING #3640.
A further test deals with Escherichia coli. The experiment in a line: microbe, parasite or virus in culture. Conditions: ATCC 25922, 18 h, ASSAY_TEST Inhibition of Bacterial Growth, detection method Absorption (OD600), MEDIA CAMHB, plate type 384well, NBS, CORNING #3640.
Test [2] relates to Pseudomonas aeruginosa. The experiment in a line: Antibacterial activity against Pseudomonas aeruginosa PAO397 [PAO1 d(mexAB-oprM) d(mexCD-oprJ) d(mexEF-oprN) d(mexJKL) d(mexXY) d(opmH)] (CO-ADD:GN_211); MIC in CAMBH media using NBS plates, by OD(600). It counts as functional. Conditions: ASSAY_TEST Inhibition of Bacterial Growth, detection method Absorption (OD600), MEDIA CAMHB, plate type 384well, CORNING #3640, time 18 hr.

Another test concerns HEK293. The experiment in a line: cells. It counts as functional, Homo sapiens, ATCC CRL1573. Conditions: Homo sapiens, ATCC CRL1573, HEK293; ASSAY_TEST Inhibition of Cell Viability; detection method Resazurin; Fluorescence (ex560/em590); MEDIA DMEM with 10% FBS; plate type 384well; TC; CORNING #3712; time 18 hr; read-out: CC50. (The colour change of resazurin is a common sign of viable cells or microbes.)

Description for Acinetobacter baumannii: Antibacterial activity against Acinetobacter baumannii ATCC 19606 (CO-ADD:GN_034); MIC in CAMBH media using NBS plates, by OD600
Description for Candida albicans: Antifungal activity against Candida albicans ATCC 90028 (CO-ADD:FG_001); MIC in YNB media using NBS plates, by OD630
Description for Cryptococcus neoformans: Antifungal activity against Cryptococcus neoformans H99 ATCC 208821 (CO-ADD:FG_002); MIC in YNB media using NBS plates, by Resazurin OD(600-570)
Description for Escherichia coli: Antibacterial activity against Escherichia coli ATCC 25922 (CO-ADD:GN_001); MIC in CAMBH media using NBS plates, by OD(600)
Description for Klebsiella pneumoniae: Antibacterial activity against Klebsiella pneumoniae MDR ATCC 70063 (CO-ADD:GN_003); MIC in CAMBH media using NBS plates, by OD(600)
Description for Staphylococcus aureus: Antibacterial activity against Staphylococcus aureus MRSA ATCC 43300 (CO-ADD:GP_020); MIC in CAMBH media, using NBS plates, by OD(600)

For `[N-]=[N+]=N[C@H]1C[C@H](n2ccc(=O)[nH]c2=O)O[C@@H]1CO` [NAVURIDINE], the MIC against Candida albicans, against Pseudomonas aeruginosa [1], against Cryptococcus neoformans, against Staphylococcus aureus, against Klebsiella pneumoniae and in the test on Acinetobacter baumannii was greater than 20 µM throughout. The MIC with Escherichia coli and against Pseudomonas aeruginosa [2] was greater than 20 µM each time. Also, the 50% cytotoxic concentration (CC50) in the test with HEK293 is greater than 20 µM.
With `FC(F)(F)Oc1ccc(Nc2ccc3cccc(Cl)c3n2)cc1` [OBEFAZIMOD], the MIC against Candida albicans, against Pseudomonas aeruginosa [1], against Cryptococcus neoformans, in the test with Staphylococcus aureus, with Klebsiella pneumoniae and in the test on Acinetobacter baumannii was greater than 20 µM each time. In addition, the MIC against Escherichia coli and against Pseudomonas aeruginosa [2] was greater than 20 µM throughout. Also, in the test with HEK293, the CC50 was greater than 20 µM.
Take `Cc1cc(-c2ccccc2)c(C(=O)C(=O)Nc2ccc(N3CCN(c4ncc(F)cn4)CC3)cc2)n1C` [OLOROFIM]: the MIC with Candida albicans, with Pseudomonas aeruginosa [1], against Cryptococcus neoformans, with Staphylococcus aureus, against Klebsiella pneumoniae and with Acinetobacter baumannii was greater than 20 µM each time. For the same compound, the MIC in the test on Escherichia coli and against Pseudomonas aeruginosa [2] was greater than 20 µM each time. The CC50 in the test on HEK293 was greater than 20 µM.
In the case of `O[C@@](Cn1cnnn1)(c1ccc(F)cc1F)C(F)(F)c1ccc(-c2ccc(OCC(F)(F)F)cc2)cn1` [OTESECONAZOLE], the MIC in the test on Candida albicans was no more than 0.156 µM; in the test with Pseudomonas aeruginosa [1] it was greater than 20 µM; against Cryptococcus neoformans, 0.625 µM (≈ 0.33 µg/mL); against Staphylococcus aureus it was greater than 20 µM; in the test with Klebsiella pneumoniae, greater than 20 µM; with Acinetobacter baumannii, greater than 20 µM. Moreover, the MIC against Escherichia coli and in the test with Pseudomonas aeruginosa [2] was greater than 20 µM in each case. Besides, in the test on HEK293, the CC50 was greater than 20 µM.
For `COC(=O)Nc1nc2cc([S+]([O-])c3ccccc3)ccc2[nH]1` (stereo unspecified) [OXFENDAZOLE], the MIC in the test on Candida albicans, in the test on Pseudomonas aeruginosa [1], against Cryptococcus neoformans, in the test on Staphylococcus aureus, in the test on Klebsiella pneumoniae and against Acinetobacter baumannii was greater than 20 µM each time. Further, the MIC in the test with Escherichia coli and with Pseudomonas aeruginosa [2] was greater than 20 µM each time. In addition, in the test on HEK293, the CC50 is greater than 20 µM.
As to `CC(C)Oc1ccc(-c2nc(-c3cccc4c3CC[C@@H]4NCCO)no2)cc1C#N` [OZANIMOD], the MIC in the test with Candida albicans, against Pseudomonas aeruginosa [1], with Cryptococcus neoformans, against Staphylococcus aureus, with Klebsiella pneumoniae and in the test on Acinetobacter baumannii was greater than 20 µM in each case. The MIC in the test on Escherichia coli and against Pseudomonas aeruginosa [2] was greater than 20 µM in each case. Also, the CC50 with HEK293 was greater than 20 µM.
As for `CONC(=N)c1ccc(-c2ccc(-c3ccc(C(=N)NOC)cc3)o2)cc1` [PAFURAMIDINE], the MIC in the test with Candida albicans, in the test with Pseudomonas aeruginosa [1], against Cryptococcus neoformans, in the test on Staphylococcus aureus, against Klebsiella pneumoniae and against Acinetobacter baumannii was greater than 20 µM throughout. Besides, the MIC against Escherichia coli and in the test on Pseudomonas aeruginosa [2] was greater than 20 µM each time. The CC50 in the test on HEK293 is greater than 20 µM.
In the case of `COc1ccc(COc2cc3oc(=O)c4cc(C(C)O)ccc4c3cc2OC)cc1` (stereo unspecified) [PALOMID-529], the MIC in the test on Candida albicans, against Pseudomonas aeruginosa [1], in the test on Cryptococcus neoformans, in the test on Staphylococcus aureus, in the test on Klebsiella pneumoniae and against Acinetobacter baumannii was greater than 20 µM in each case. The MIC in the test on Escherichia coli and with Pseudomonas aeruginosa [2] was greater than 20 µM each time. For the same compound, the CC50 in the test on HEK293 is greater than 20 µM.
For the compound `Cc1[nH]c2ccccc2c1CCNCc1ccc(/C=C/C(=O)NO)cc1` [PANOBINOSTAT], the MIC against Candida albicans, with Pseudomonas aeruginosa [1], with Cryptococcus neoformans, in the test with Staphylococcus aureus, with Klebsiella pneumoniae and in the test on Acinetobacter baumannii was greater than 20 µM in each case. Besides, the MIC in the test with Escherichia coli and against Pseudomonas aeruginosa [2] was greater than 20 µM throughout. Besides, in the test on HEK293, the CC50 is greater than 20 µM.
With `Nc1nc2c(Cc3cccnc3)c[nH]c2c(=O)[nH]1` [PELDESINE], the MIC with Candida albicans, with Pseudomonas aeruginosa [1], against Cryptococcus neoformans, against Staphylococcus aureus, against Klebsiella pneumoniae and with Acinetobacter baumannii was greater than 20 µM in each case. The MIC in the test with Escherichia coli and against Pseudomonas aeruginosa [2] was greater than 20 µM each time. Besides, the CC50 in the test on HEK293 was greater than 20 µM.
`CC[C@@H]1C(=O)OC[C@@H]1Cc1cncn1C` [PILOCARPINE HYDROCHLORIDE]: the MIC in the test with Candida albicans, against Pseudomonas aeruginosa [1], against Cryptococcus neoformans, in the test with Staphylococcus aureus, in the test with Klebsiella pneumoniae and with Acinetobacter baumannii was greater than 20 µM in each case. Also, the MIC with Escherichia coli and against Pseudomonas aeruginosa [2] was greater than 20 µM throughout. Besides, the CC50 with HEK293 is greater than 20 µM.
Turning to `O=C(O)[C@H]1C2CCC(CC2)[C@@H]1Nc1nc(-c2c[nH]c3ncc(F)cc23)ncc1F` [PIMODIVIR], the MIC in the test on Candida albicans, with Pseudomonas aeruginosa [1], with Cryptococcus neoformans, in the test with Staphylococcus aureus, with Klebsiella pneumoniae and against Acinetobacter baumannii was greater than 20 µM each time. The MIC with Escherichia coli and in the test on Pseudomonas aeruginosa [2] was greater than 20 µM throughout. For the same compound, the CC50 in the test with HEK293 is greater than 20 µM.
Consider `CN(C)CC(=O)Nc1ccc2[nH]c(=O)c3ccccc3c2c1` [PJ34], for which the MIC in the test on Candida albicans, in the test with Pseudomonas aeruginosa [1], against Cryptococcus neoformans, with Staphylococcus aureus, in the test on Klebsiella pneumoniae and against Acinetobacter baumannii was greater than 20 µM each time. Further, the MIC against Escherichia coli and against Pseudomonas aeruginosa [2] was greater than 20 µM throughout. For the same compound, the CC50 in the test on HEK293 was greater than 20 µM.
For the compound `Cc1cc(CCCOc2c(C)cc(-c3noc(C(F)(F)F)n3)cc2C)on1` [PLECONARIL], the MIC in the test on Candida albicans, in the test on Pseudomonas aeruginosa [1], in the test with Cryptococcus neoformans, against Staphylococcus aureus, with Klebsiella pneumoniae and against Acinetobacter baumannii was greater than 20 µM throughout. For the same compound, the MIC in the test on Escherichia coli and in the test on Pseudomonas aeruginosa [2] was greater than 20 µM each time. Besides, the CC50 with HEK293 was greater than 20 µM.
`c1cc(CN2CCCNCCNCCCNCC2)ccc1CN1CCCNCCNCCCNCC1` [PLERIXAFOR]: the MIC in the test with Candida albicans, in the test with Pseudomonas aeruginosa [1], against Cryptococcus neoformans, against Staphylococcus aureus, in the test on Klebsiella pneumoniae and against Acinetobacter baumannii was greater than 20 µM in each case. Also, the MIC against Escherichia coli and in the test on Pseudomonas aeruginosa [2] was greater than 20 µM each time. Moreover, the CC50 in the test on HEK293 is greater than 20 µM.
As to `O=[N+]([O-])c1cn2c(n1)OC[C@@H](OCc1ccc(OC(F)(F)F)cc1)C2` [PRETOMANID], the MIC in the test on Candida albicans, against Pseudomonas aeruginosa [1], against Cryptococcus neoformans, in the test with Staphylococcus aureus, against Klebsiella pneumoniae and with Acinetobacter baumannii was greater than 20 µM throughout. The MIC against Escherichia coli and in the test on Pseudomonas aeruginosa [2] was greater than 20 µM throughout. Besides, the CC50 in the test with HEK293 was greater than 20 µM.
With `NC(=O)c1cnccn1` [PYRAZINAMIDE], the MIC in the test on Candida albicans, with Pseudomonas aeruginosa [1], in the test with Cryptococcus neoformans, against Staphylococcus aureus, with Klebsiella pneumoniae and with Acinetobacter baumannii was greater than 20 µM each time. Also, the MIC in the test with Escherichia coli and in the test on Pseudomonas aeruginosa [2] was greater than 20 µM each time. Also, the CC50 in the test on HEK293 was greater than 20 µM.
For `C[C@@H](c1nc(-c2ccc(C#N)cc2)cs1)[C@](O)(Cn1cncn1)c1ccc(F)cc1F` [RAVUCONAZOLE], the MIC was no more than 0.156 µM against Candida albicans; greater than 20 µM in the test with Pseudomonas aeruginosa [1]; 0.312 µM (≈ 0.137 µg/mL) with Cryptococcus neoformans; greater than 20 µM in the test with Staphylococcus aureus; greater than 20 µM against Klebsiella pneumoniae; greater than 20 µM against Acinetobacter baumannii. Moreover, the MIC against Escherichia coli and against Pseudomonas aeruginosa [2] was greater than 20 µM in each case. Further, the CC50 in the test on HEK293 is greater than 20 µM.
Regarding `CCOCc1nc2c(N)nc3ccccc3c2n1CC(C)(C)O` [RESIQUIMOD], the MIC with Candida albicans, in the test with Pseudomonas aeruginosa [1], in the test on Cryptococcus neoformans, with Staphylococcus aureus, with Klebsiella pneumoniae and against Acinetobacter baumannii was greater than 20 µM throughout. For the same compound, the MIC with Escherichia coli and in the test with Pseudomonas aeruginosa [2] was greater than 20 µM throughout. Also, in the test on HEK293, the CC50 was greater than 20 µM.

The values are drawn from ChEMBL document CHEMBL4513161, “CO-ADD screening of MMV (CH) - Pandemic Response Box” (2021).
